From patent US11555072B2, “A33 antibody compositions and methods of using the same in radioimmunotherapy” (MEMORIAL SLOAN KETTERING CANCER CENTER, priority 2017, dated 2023)

Columns and labels:
[1] = molecular target: T1, GPA33 (Homo sapiens, UniProt Q99795); assay: FACS staining of tumor cell lines; type: cell-based; conditions: panel of GPA33(+) and GPA33(−) cell lines
T1 construct: endogenous in cells; host or cells: human colon cancer cell lines (e.g. LS174T, SW1222, Colo205) and gastric cancer cell line SNU16
T1 sequence (Q99795 22-319): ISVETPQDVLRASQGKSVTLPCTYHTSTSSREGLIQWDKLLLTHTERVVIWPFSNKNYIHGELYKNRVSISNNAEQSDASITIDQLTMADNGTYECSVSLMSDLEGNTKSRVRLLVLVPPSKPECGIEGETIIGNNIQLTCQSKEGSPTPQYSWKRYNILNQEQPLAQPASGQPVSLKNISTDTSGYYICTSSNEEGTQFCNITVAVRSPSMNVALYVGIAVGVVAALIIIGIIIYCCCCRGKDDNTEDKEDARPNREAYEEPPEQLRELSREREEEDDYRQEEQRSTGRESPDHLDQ
From the text: (§1) Antibodies and flow cytometry. Antibodies anti-hCD25-PE, anti-CD69-PE, anti-hCD8-APC, anti-hCD45-PECy7, anti-hCD4-PE, anti-hCD4-BV421, anti-hCD62L-PercpCy5.5, anti-hPD1-BV421, anti-hCD45RO-PECy7, were purchased from BIOLEGEND® (San Diego, Calif.). Goat anti-human IgG-PE was purchased from SouthernBiotech (Birmingham, Ala.). Streptavidin-PE, anti-hCD4-APC and anti-hCD25-APC were purchased from BD Biosciences (San Jose, Calif.). All FACS analysis was done using FACSCalibur or LSRII system (BD Biosciences, San Jose, Calif.) and analyzed using FlowJo (FLOWJO, Ashland, Oreg.).
(§2) The avidities of huA33-BsAb towards GPA33 at both 25° C. and 37° C. were measured using GPA33 immobilized CM5 chips.

[2] = molecular target: T2, CD3 on T cell surface (Homo sapiens, UniProt P07766); assay: FACS staining of activated T cells; type: cell-based
T2 construct: endogenous in cells
From the text: as §1, §2

[3] = system: T cells; assay: Cytokines and cytolytic molecules release assay; type: cell-based, human; conditions: T cells + Colo205, E:T 5:1, over 4 days
Method: Cytokines and cytolytic molecules release assay. T cells were purified from PBMCs using pan T cell isolation kit (Miltenyi Biotec, Cambridge, Mass.). Target and control tumor cells were incubated with 2×10^6 cells/well at an effector to target ratio of 5:1 in 24-well plates in triplicates, with 2 ml total volume per well. Culture supernatants were collected at 24 hours, 48 hours, 72 hours and 96 hours and cytokine levels were measured with flow cytometry using LEGENDplex™ human CD8/NK Panel (BIOLEGEND®, San Diego, Calif.) according to the manufacturer's protocol.
HuA33-BsAb induced secretion of inflammatory cytokines and cytolytic molecules. The secreted cytokine profile of T cells activated by huA33-BsAb in the presence of target tumors was examined. Total T cells were purified from PBMCs and cultured in the presence of Colo205 tumor cells at an effector to target ratio of 5:1. To estimate nonspecific activation, SKMEL5 cells were used as a negative control. Cell culture supernatants were collected daily over 4 days and the levels of cytokines and cytotoxic molecules were measured using a flow cytometry based multiplex method. […] Similarly, a significant amount of IL-6 was secreted by activated T cells. Th17 cytokine IL-17a was also secreted at high levels.

[4] = system: GPA33-expressing cancer cells; assay: T-cell dependent cytotoxicity (TDCC) assay with activated T cells; type: cell-based, human
Method: T-cell dependent cytotoxicity (TDCC) assays. Cytotoxicity assays were performed using both ^51Cr-release assay and Pierce LDH-release assay (Thermo Fisher Scientific, Cambridge, Mass.). For both assays, T cells activated by exposure to anti-CD3/anti-CD28 Dynabeads for 14 days were subsequently used as effector cells, excepted for sorted cells from PBMCs, which were used for TDCC assay without prior stimulation. ^51Cr assay was performed as previously described in Cheng M et al., International Journal of Cancer 136:476-486 (2015). LDH assay was conducted according to the manufacturer's instructions with the following modifications. Briefly, for each assay well of a 96-well round-bottom plate, 1.5×10^4 target cells were incubated with variable number of effector cells, depending on the intended E:T ratios. Antibodies were then added at different dilutions and the plates were incubated at 37° C. for 16 hours. Each condition was done in triplicates. Supernatant was then transferred to a flat bottom plate with reaction substrate and incubated for 30 min before reading at 490 nm, with 680 nm as a reference wavelength. EC50 values were calculated by fitting the curves to a 4-parameter nonlinear regression model using GraphPad Prism.
Cancer cells were incubated with activated T cells at an effector to target ratio of 10:1 in the presence of 10-fold serial dilutions of huA33-BsAb. GPA33(−) melanoma cell line SKMEL5 and […] cell line TC32 were used as negative controls. […] Maximal level of cytotoxicity seemed to correlate with the level of FACS staining (FIG. 1(D) and FIG. 4(A)). Moreover, TDCC induced by huA33-BsAb was potent, with EC50 values in the pM range.

[5] = system: Colo205 tumors; assay: s.c. Colo205 xenograft with PBMCs; type: in vivo, mice
Method: (§3) In vivo tumor therapy. For subcutaneous (s.c.) tumor models, LS174T, Colo205 or SNU16 cells were combined with fresh PBMCs at a 1:1 ratio, mixed with […]® (volume of cell:gel=1:2), and implanted (100 μl/mouse) at the flank of Balb/c Rag2^−/−IL2Rγ^−/− (DKO) mice (now commercially available from Taconic as CIEA BRG mice). Treatment started after confirmation of tumor presence with a BIW schedule at 100 μg/mouse and continued for 3-4 weeks. Tumor growth was monitored by weekly measurement of tumor volume using a caliper or a digital device Peira TM900 Scanner (Peira Scientific Instruments, Turnhout, Belgium).
HuA33-BsAb cured MSS tumor COLO205 in a s.c. xenograft model and suppressed tumor growth of metastatic MSS tumor SW1222. Two MSS colon cancer cell lines Colo205 and SW1222 were tested. For Colo205 cells, tumors were implanted subcutaneously with PBMCs as effector cells.

[6] = system: SNU16 tumors; assay: s.c. SNU16 gastric cancer xenograft with PBMCs; type: in vivo, mice; conditions: s.c. SNU16 mixed with human PBMCs
Method: as §3
HuA33-BsAb inhibited growth of gastric cancers in a s.c. xenograft model. GPA33 is expressed in a subset of gastric cancer cells. […] Unlike NSG mice, DKO mice were more resistant to engraftment of human PBMCs.

T2 sequence (P07766 23-207): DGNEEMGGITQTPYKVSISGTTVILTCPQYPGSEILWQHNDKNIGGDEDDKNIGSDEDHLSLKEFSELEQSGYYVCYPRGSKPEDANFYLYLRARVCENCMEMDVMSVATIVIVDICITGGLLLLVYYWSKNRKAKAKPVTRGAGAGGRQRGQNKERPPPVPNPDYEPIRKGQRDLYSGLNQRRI
T2 sequence (P09693 23-182 partner): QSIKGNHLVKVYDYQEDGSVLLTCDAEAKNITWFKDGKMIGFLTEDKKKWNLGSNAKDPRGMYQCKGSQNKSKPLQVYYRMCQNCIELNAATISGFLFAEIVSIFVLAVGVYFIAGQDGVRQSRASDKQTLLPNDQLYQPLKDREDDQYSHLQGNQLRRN
T2 sequence (P04234 22-171 partner): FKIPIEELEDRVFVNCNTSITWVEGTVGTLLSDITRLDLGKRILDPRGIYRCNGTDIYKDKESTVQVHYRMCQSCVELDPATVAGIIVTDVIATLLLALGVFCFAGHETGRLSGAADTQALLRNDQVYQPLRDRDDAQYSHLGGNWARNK
T2 sequence (P20963 22-164 partner): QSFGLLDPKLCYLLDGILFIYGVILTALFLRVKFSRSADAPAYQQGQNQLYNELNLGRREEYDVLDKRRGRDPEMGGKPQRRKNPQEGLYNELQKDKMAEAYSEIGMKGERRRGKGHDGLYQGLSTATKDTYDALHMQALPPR

huA33-BsAb: huA33 IgG with humanized OKT3 scFv fused to light chain C-terminus, N297A and K322A; SEQ ID NO: 19 and 21
FACS staining of cancer cell lines [1]: stained colon cancer cell lines and one gastric cancer cell line but not GPA33(−) neuroblastoma cell line IMR32, osteosarcoma cell line TC32 or melanoma cell line SKMEL5
staining of activated T cells [2]: bound to CD3 on T cell surface
release of cytotoxic components (sFasL, sFas, Granzyme A, Granzyme B, Perforin, Granulysin) [3]: all released in the supernatant
secretion of cytokines by activated T cells [3]: both Th1 cytokines (IL-2, IFNγ, TNFα) and Th2 cytokines (IL-4, IL-10) were secreted by activated T cells
redirected T cell killing of GPA33-expressing cancer cells ([4]; LS174T, SW1222, Colo205, SNU16, activated T cells, E:T 10:1, 16 hours): specifically kill all GPA33-expressing cancer cells
redirected T cell killing of GPA33(−) control cells ([4]; SKMEL5 and TC32, E:T 10:1): sparing SKMEL5 and TC32
TDCC EC50 values ([4]; activated T cells, E:T 10:1): pM range
tumor response ([5]; 4 doses): completely eradicate Colo205 tumors
time mice remained tumor free ([5]; after a total of 6 doses): at least 4 months
survival [6]: significantly prolonged survival
tumor response [6]: effectively cured the mice harboring s.c. tumors
